Entries after “also recorded” stand apart in the source; their conditions may differ. Like-named read-outs stand apart in the source and are kept apart here. Peptide text beside a SMILES is read from it. * marks the point of attachment. Cbz = O=C(OCc1ccccc1)*; Bz = O=C(c1ccccc1)*
Key:
PfuCP [1] = target: T1, PfuCP (Pyrococcus furiosus, UniProt Q8U3L0); format: biochemical
T1 construct: Pure PfuCP fractions (1391 U.mg^1; 11 mg), as determined by SDS-PAGE, were pooled and stored at −80° C; endogenous in cells; host or cells: Pyrococcus furiosus cell paste; enzyme purified in house by column chromatography
T1 sequence (Q8U3L0 1-499): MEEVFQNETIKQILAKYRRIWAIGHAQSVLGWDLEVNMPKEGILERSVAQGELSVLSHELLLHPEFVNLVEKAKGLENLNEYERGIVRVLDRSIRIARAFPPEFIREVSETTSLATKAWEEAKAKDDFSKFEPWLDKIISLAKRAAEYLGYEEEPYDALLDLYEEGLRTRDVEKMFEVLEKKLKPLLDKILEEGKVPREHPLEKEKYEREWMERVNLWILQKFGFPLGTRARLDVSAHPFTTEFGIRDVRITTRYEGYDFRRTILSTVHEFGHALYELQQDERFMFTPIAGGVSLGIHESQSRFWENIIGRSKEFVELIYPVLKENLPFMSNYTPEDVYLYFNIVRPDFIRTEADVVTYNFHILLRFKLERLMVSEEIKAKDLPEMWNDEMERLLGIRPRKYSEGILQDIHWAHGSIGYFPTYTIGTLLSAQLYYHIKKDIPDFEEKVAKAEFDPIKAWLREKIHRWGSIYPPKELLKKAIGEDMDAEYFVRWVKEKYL
Protocol: (§1) Assay of Enzyme Activity: Unless stated otherwise, enzymatic activity was assayed using 4 μl of enzyme sample in a total volume of 100 μl of 0.1 M KMES buffer (pH 6.5), starting with 2 mM ZAR in the presence of 0.4 mM CoCl2. Polypropylene microcentrifuge tubes were used. The enzyme and substrate were mixed quickly at room temperature and then brought to 80° C.; the equilibration time for the reaction mixture to reach 80° C. was considered negligible relative to the time scale of the assay. The reaction mixture was incubated at 80° C. in a water bath (Neslab EX-200 DD) for 10 minutes followed by quenching on ice. Subsequently, 750 μl of cadmium-ninhydrin reagent (21) was added and the samples were incubated for an additional 5 min at 80° C. for color development followed by quenching on ice. The absorbance was read at 500 nm (HP 8452A diode array spectrophotometer) with an unheated assay mixture containing Cd-ninhydrin reagent serving as the blank. Absorbances were compared with an arginine standard curve in order to calculate specific activities. Stock solutions of ZAR and CoCl2 were prepared in 0.1 M KMES buffer (pH 6.5), and when necessary, dilution of enzyme samples was done in 50 mM Tris-Cl buffer (pH 8.0). All pH adjustments were performed at room temperature. The free amine of the liberated arginine reacts with ninhydrin to yield the chromophore, Ruheman's purple (absorbance at 500 nm).

[2] = system: carboxypeptidase activity in crude extract; assay: Effect of DTT and EDTA on carboxypeptidase activity in crude extract; format: biochemical, Pyrococcus furiosus; conditions: preliminary studies
PfuCP [3] = target: T1, PfuCP; assay: Re-activation by metal ions: divalent metal ion dependence of PfuCP activity; format: biochemical; conditions: at 80° C.; linear reciprocal plot; read-out: binding constant (Kd) for Co^2+
Protocol: as §1, with “All pH adjustments were performed at room temperature.” left out, “nm). […]” for “nm).”

PfuCP [4] = target: T1, PfuCP; assay: Hydrolysis of synthetic substrates by PfuCP; format: biochemical; conditions: for hydrolysis by PfuCP: initial studies and control experiment; for hydrolysis by PfuCP at longer digestion time: digestion time 30 minutes, not detected under standard conditions
Protocol: as §1
One unit of activity is defined as the amount of enzyme required to generate one μmole of arginine from ZAR in one minute at 80° C. Activity assays for other ZAX amino acid substrates (X=A, D, E, F, G, H, I, K, L, M, N, P, R, S, V, W, Y) were performed under otherwise identical assay conditions; appropriate amino acids were used to prepare standard curves. Spontaneous hydrolysis of the synthetic substrates was not observed at these temperatures. Protein concentrations were quantified by the Bradford assay using bovine serum albumin as the standard.

O[C@H](CS)[C@H](O)CS (racemic) [DTT, dithiothreitol]
reversibility of inhibition (PfuCP [1]): fully reversible
effect on PfuCP activity (PfuCP [1]; 2 mM): not observed
effect on carboxypeptidase activity in crude extract [2]: completely abolished

[Co+2] [Co^2+]
Kd (PfuCP [3]): 13 ± 3 µM

O=C(O)CN(CCN(CC(=O)O)CC(=O)O)CC(=O)O [EDTA, ethylenediaminetetraacetic acid]
effect on PfuCP activity (PfuCP [1]): not observed
reversibility of inhibition (PfuCP [1]): fully reversible
effect on carboxypeptidase activity in crude extract [2]: completely abolished

O=S(=O)(F)Cc1ccccc1 [PMSF, Phenymethylsulfonyl fluoride]
effect on PfuCP activity (PfuCP [1]; 1 mM): no effect
effect on the enzymatic activity of the polypeptide (PfuCP [1]; concentration not given): no effect

C[C@H](NC(=O)OCc1ccccc1)C(=O)O [ZA, N-Cbz-Ala]
hydrolysis by PfuCP (PfuCP [4]): no hydrolysis

CC(NC(=O)OCc1ccccc1)C(=O)NC(Cc1cnc[nH]1)C(=O)O (stereo not drawn) [ZAH]
hydrolysis by PfuCP at longer digestion time (PfuCP [4]): hydrolyzed; also recorded: observed

C[C@H](NC(=O)OCc1ccccc1)C(=O)N[C@@H](CC(N)=O)C(=O)O [ZAN] (Cbz-Ala-Asn-OH)
hydrolysis by PfuCP at longer digestion time (PfuCP [4]): hydrolyzed; also recorded: observed

CC(NC(=O)OCc1ccccc1)C(=O)NC(CO)C(=O)O (stereo not drawn) [ZAS]
hydrolysis by PfuCP at longer digestion time (PfuCP [4]): hydrolyzed; also recorded: observed

O=C(O)CNC(=O)c1ccccc1 [hippuric acid, Bz-Gly]
hydrolysis by PfuCP (PfuCP [4]): activity

NC(N)=NCCC[C@H](NC(=O)CNC(=O)c1ccccc1)C(=O)O [hippuryl-arginine, N-Benzoyl-Gly-Arg] (Bz-Gly-Arg-OH)
hydrolysis by PfuCP (PfuCP [4]): active

Reference: US6967096B2, “Thermostable peptidase” (California Institute of Technology, priority 1998, dated 2005)
